# Assay results from patent publication US11478482B2 (NATIONAL UNIVERSITY CORPORATION TOKAI NATIONAL HIGHER …, priority 2018, dated 2022).
# Structures can show the parent of a compound that is named as a salt.
# Tests used:
# [1] = system: Meth-treated mice (C57BL/6); test: Meth-induced visual discrimination learning impairment in C57BL/6 mice (wild type); format: in vivo; settings: for Meth-induced (1.0 mg/kg) visual discrimination impairment: meth-treated C57BL/6 mice
# MK-801-treated mice [2] = test: Visual discrimination test in MK-801-treated mice
# MK-801-treated mice [3] = test: Social behavior test in MK-801-treated mice; format: in vivo
# Protocol: Before conducting the experiment, test mice were kept in breeding cages one by one for 2 days. On the third day, mice that had been normally group-reared in another breeding cage were placed as invading mice into the cages of the test mice, and social behaviors of the test mice, such as tracking and sniffing, were measured for 5 minutes (Ibi et al., 2010).
# MK-801-treated mice [4] = test: MK-801-induced hyperactivity (hypermobility); format: in vivo; settings: MK-801 0.3 mg/kg
# Protocol: (§1) Mice were placed one by one in measurement cages (25 cm×30 cm×18 cm). Immediately after the placement, spontaneous locomotor activity of mice was measured using a measurement device equipped with infrared light (Brain Science Idea, Osaka, Japan) (Ibi et al., 2010).
# After 5 minutes, MK-801 (0.3 mg/kg) was intraperitoneally administered. The amount of locomotor activity started to be measured immediately after the administration (FIG. 6, panel A).
# C57BL/6 mice = test: Spontaneous locomotor activity; format: in vivo
# Protocol: as §1
# [5] = system: dopaminergic neurons induced from iPS cells of patients with ARHGAP10 mutation; test: Neurite length of iPS cell-derived dopaminergic neurons (IncuCyte NeuroTrack); format: cell-based, human; settings: 72 hours after addition of inhibitor
# Protocol: Dopaminergic neurons were induced from iPS cells of healthy subjects and patients with ARGHAP10 mutation. The induction method was performed according to a method already published (Transl Psychiatry. 2018 Jul. 19; 8(1): 129; and patent application PCT/JP2018/015304). To give an overview, iPS cells were cultured in an iPS cell medium supplemented with SB431542 (3 μM), CHIR99021 (3 μM), and dorsomorphin (3 μM) for 7 days (day 0 to day 7). The cultured cells were then dispersed with TrypLE™ select (Thermo Fisher Scientific Inc.) and passed through a cell strainer. […]
# Dopaminergic progenitor cells were seeded onto a culture dish coated with poly-L-ornithine/laminin/fibronectin (poly-L-ornithine, laminin, and fibronectin), and an Rho kinase inhibitor was added simultaneously. […] The length of neurites after 72 hours was automatically measured with IncuCyte NeuroTrack (registered trademark).
# Dopaminergic neurons were induced from iPS cells derived from healthy subjects and patients with ARHGAP10 mutation. […] The length of neurites was automatically detected and measured with IncuCyte (registered trademark) NeuroTrack (produced by Essen Bioscience).
# The length of neurites (mm) per mm^2 was calculated for each field of view, and analysis was performed for 18 fields of view in each group. […]
# ARHGAP10 mutant mice = test: Meth-induced visual discrimination learning impairment in ARHGAP10 mutant mice; format: in vivo; settings: patient-type ARHGAP10 mutant mice
# [6] = fasudil 20 mg/kg i.p., listed as Fasudil, monohydrochloride hemihydrate
# [7] = fasudil 20 mg/kg i.p., monohydrochloride hemihydrate
compound,measurement,setting,value
Methamphetamine hydrochloride,correct response rate in the visual discrimination learning test,"[1]; meth 1.0 mg/kg, C57BL/6 mice, saline-treated about 90%",about 70%
"C[C@]12N[C@H](Cc3ccccc31)c1ccccc12 [MK-801, (+)-MK-801 maleate]",correct response rate in the visual discrimination learning test,"MK-801-treated mice [2]; MK-801 0.1 mg/kg i.p., C57BL/6 mice, saline-treated 90%",about 70%
same,time of social behavior,"MK-801-treated mice [3]; MK-801 0.1 mg/kg i.p., compared with control mice",significantly reduced
"O=S(=O)(c1cccc2cnccc12)N1CCCNCC1 [fasudil, hexahydro-1-(5-isoquinolinesulfonyl)-1H-1,4-diazepine monohydrochloride hemihydrate]",MK-801-induced hypermobility,MK-801-treated mice [4]; fasudil 10 mg/kg i.p.,±
same,MK-801-induced hypermobility,MK-801-treated mice [4]; [6],Improved
same,MK-801-induced hypermobility,MK-801-treated mice [4]; [7],significantly inhibited
same,Spontaneous locomotor activity,"C57BL/6 mice; fasudil 20 mg/kg i.p., Table 1",±
same,Spontaneous locomotor activity,"C57BL/6 mice; fasudil 20 mg/kg i.p., versus saline-treated mice",same level of spontaneous locomotor activity as the saline-treated mice
same,Spontaneous locomotor activity,"C57BL/6 mice; fasudil 30 mg/kg i.p., versus saline-treated mice, listed as Fasudil, monohydrochloride hemihydrate",Decreased
same,Spontaneous locomotor activity,"C57BL/6 mice; fasudil 30 mg/kg i.p., versus saline-treated mice, monohydrochloride hemihydrate",significant decrease
same,length of neurites,[5],improving effects
same,MK-801-induced (1.0 mg/kg) visual discrimination disorder,MK-801-treated mice [2]; fasudil 3 mg/kg i.p.,±
same,MK-801-induced (1.0 mg/kg) visual discrimination disorder,MK-801-treated mice [2]; [6],Improved
same,MK-801-induced (1.0 mg/kg) visual discrimination disorder,MK-801-treated mice [2]; [7],returned to the control level
same,"test completion rate, latency to correct response, latency to obtain the reward","MK-801-treated mice [2]; fasudil 3, 10 or 20 mg/kg i.p., MK-801-treated mice",none of the groups showed significant changes
same,Meth-induced (1.0 mg/kg) visual discrimination impairment,[1]; fasudil 3 mg/kg i.p.,Improvement
same,Meth-induced (1.0 mg/kg) visual discrimination impairment,"[1]; fasudil 10 mg/kg i.p., listed as Fasudil, monohydrochloride hemihydrate",Improved
same,Meth-induced (1.0 mg/kg) visual discrimination impairment,"[1]; fasudil 10 mg/kg i.p., monohydrochloride hemihydrate",improved
same,Meth-induced (1.0 mg/kg) visual discrimination impairment,[1]; [6],Improved
same,Meth-induced (1.0 mg/kg) visual discrimination impairment,[1]; [7],improved
same,MK-801-induced social behavior disorder,"MK-801-treated mice [3]; fasudil 5 mg/kg i.p., MK-801 0.1 mg/kg",±
same,MK-801-induced social behavior disorder,"MK-801-treated mice [3]; fasudil 10 mg/kg i.p., MK-801 0.1 mg/kg, listed as Fasudil, monohydrochloride hemihydrate",Improved
same,MK-801-induced social behavior disorder,"MK-801-treated mice [3]; fasudil 10 mg/kg i.p., MK-801 0.1 mg/kg, monohydrochloride hemihydrate",returned to the same level as the social behavior in control mice
same,MK-801-induced social behavior disorder,MK-801-treated mice [3]; fasudil 20 mg/kg i.p.,±
same,Meth-induced (0.3 mg/kg) visual discrimination impairment,ARHGAP10 mutant mice; fasudil 3 mg/kg i.p.,Improved
same,Meth-induced (0.3 mg/kg) visual discrimination impairment,ARHGAP10 mutant mice; fasudil 10 mg/kg i.p.,Improved
same,Meth-induced (0.3 mg/kg) visual discrimination impairment,ARHGAP10 mutant mice; [7],significantly improved
